Data set [1] concerns the target T1, sphingosine-1-phosphate receptor 1 (S1P1) (Homo sapiens, UniProt P21453).
T1 construct: gene S1PR1; hS1P1 stably expressed in HEK-293 cells (membrane pellets)
Briefly: […]-GTPγS binding assay (SPC-stimulated) in membranes of HEK-293 cells stably expressing hS1P1. Type of data set: biochemical.

Another data set has as its target T2, 2D6 (Homo sapiens, UniProt P10635).
T2 construct: gene CYP2D6
Briefly: biochemical. The conditions noted are these: read-out: CYP450 IC50. Further details: CYP450 isoform inhibition assay, IC50.

In another data set the target is T3, 2C9 (Homo sapiens, UniProt P11712).
T3 construct: gene CYP2C9
Briefly: biochemical.

For the next data set, the target named is T4, 1A2 (Homo sapiens, UniProt P05177).
T4 construct: gene CYP1A2
T4 sequence (P05177 1-516): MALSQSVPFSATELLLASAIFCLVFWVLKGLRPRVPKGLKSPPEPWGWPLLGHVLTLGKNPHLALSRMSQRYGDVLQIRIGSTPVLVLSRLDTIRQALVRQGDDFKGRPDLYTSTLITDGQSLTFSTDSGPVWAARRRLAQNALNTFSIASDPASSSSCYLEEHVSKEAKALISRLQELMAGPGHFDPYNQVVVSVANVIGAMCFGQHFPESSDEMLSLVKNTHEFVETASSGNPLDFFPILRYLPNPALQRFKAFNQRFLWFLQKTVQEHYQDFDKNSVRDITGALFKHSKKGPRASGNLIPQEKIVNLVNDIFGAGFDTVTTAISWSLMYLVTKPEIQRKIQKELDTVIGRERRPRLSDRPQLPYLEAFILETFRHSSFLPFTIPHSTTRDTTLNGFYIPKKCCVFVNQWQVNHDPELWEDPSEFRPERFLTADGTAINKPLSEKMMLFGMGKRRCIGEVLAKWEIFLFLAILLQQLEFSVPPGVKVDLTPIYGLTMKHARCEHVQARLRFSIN
Briefly: biochemical. Also noted: CYP450 isoform inhibition assay, IC50. The conditions noted are these: read-out: CYP450 IC50.

For the next data set, the target named is T5, 3A4 (Homo sapiens, UniProt P08684).
T5 construct: gene CYP3A4
Briefly: biochemical. Further details: CYP450 isoform inhibition assay, IC50. The conditions noted are these: read-out: CYP450 IC50.

Another data set concerns the target T6, 2C19 (Homo sapiens, UniProt P33261).
T6 construct: gene CYP2C19
Briefly: biochemical. The conditions noted are these: read-out: CYP450 IC50. Also noted: CYP450 isoform inhibition assay, IC50.

Data set [2] addresses T7, hERG potassium channel (Homo sapiens, UniProt Q12809).
T7 construct: gene KCNH2
Briefly: in vitro. Also noted: hERG binding assay, [3H]astemizole displacement. How it is done:
KRO-105714 also had no cardiotoxicity in the hERG potassium channel binding assay (IC50 > 10 μM) (Additional file 1: Table S1B).

Data set [3] addresses T7, hERG potassium channel. Briefly: biochemical.

SMILES strings stand for the structures.

T7 sequence (Q12809 whole entry): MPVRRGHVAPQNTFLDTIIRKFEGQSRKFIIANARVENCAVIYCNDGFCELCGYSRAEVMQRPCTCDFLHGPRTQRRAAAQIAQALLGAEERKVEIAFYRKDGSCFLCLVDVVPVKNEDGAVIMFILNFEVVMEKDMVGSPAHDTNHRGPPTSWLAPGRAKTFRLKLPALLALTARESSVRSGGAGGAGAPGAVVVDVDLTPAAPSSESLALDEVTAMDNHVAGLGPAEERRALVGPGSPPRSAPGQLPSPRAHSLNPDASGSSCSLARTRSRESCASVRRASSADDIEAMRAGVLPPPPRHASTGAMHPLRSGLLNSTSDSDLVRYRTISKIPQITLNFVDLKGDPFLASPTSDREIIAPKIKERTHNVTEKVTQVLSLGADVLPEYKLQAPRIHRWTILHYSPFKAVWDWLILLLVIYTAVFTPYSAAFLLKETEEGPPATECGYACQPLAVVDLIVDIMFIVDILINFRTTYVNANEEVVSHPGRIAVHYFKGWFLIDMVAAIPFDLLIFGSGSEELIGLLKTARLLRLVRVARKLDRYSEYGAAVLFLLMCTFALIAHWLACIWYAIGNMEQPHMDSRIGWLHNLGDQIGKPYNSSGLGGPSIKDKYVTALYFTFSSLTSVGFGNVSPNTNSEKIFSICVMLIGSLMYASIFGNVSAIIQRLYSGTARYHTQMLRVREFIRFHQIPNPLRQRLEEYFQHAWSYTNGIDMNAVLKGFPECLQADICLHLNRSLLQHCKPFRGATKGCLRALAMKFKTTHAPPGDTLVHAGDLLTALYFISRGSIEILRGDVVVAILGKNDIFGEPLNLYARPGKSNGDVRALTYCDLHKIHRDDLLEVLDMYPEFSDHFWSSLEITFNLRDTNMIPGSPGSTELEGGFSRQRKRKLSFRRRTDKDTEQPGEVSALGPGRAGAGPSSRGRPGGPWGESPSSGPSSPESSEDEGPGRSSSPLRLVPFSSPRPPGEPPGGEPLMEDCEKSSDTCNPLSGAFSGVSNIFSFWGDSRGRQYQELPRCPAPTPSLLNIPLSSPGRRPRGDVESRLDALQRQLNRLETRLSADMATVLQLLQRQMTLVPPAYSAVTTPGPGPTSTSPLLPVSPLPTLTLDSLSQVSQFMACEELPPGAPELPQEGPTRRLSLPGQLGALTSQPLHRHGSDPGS
T1 sequence (P21453 whole entry): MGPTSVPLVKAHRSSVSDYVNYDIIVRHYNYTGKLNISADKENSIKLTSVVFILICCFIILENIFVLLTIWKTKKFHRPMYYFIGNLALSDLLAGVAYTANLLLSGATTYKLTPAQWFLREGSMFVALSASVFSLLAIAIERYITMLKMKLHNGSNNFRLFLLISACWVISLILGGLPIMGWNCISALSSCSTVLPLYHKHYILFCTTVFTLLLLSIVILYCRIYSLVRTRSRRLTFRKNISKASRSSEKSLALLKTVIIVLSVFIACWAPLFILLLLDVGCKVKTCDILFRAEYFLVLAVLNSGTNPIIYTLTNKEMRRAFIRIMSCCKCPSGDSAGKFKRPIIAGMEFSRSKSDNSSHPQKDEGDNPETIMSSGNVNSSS
T5 sequence (P08684 whole entry): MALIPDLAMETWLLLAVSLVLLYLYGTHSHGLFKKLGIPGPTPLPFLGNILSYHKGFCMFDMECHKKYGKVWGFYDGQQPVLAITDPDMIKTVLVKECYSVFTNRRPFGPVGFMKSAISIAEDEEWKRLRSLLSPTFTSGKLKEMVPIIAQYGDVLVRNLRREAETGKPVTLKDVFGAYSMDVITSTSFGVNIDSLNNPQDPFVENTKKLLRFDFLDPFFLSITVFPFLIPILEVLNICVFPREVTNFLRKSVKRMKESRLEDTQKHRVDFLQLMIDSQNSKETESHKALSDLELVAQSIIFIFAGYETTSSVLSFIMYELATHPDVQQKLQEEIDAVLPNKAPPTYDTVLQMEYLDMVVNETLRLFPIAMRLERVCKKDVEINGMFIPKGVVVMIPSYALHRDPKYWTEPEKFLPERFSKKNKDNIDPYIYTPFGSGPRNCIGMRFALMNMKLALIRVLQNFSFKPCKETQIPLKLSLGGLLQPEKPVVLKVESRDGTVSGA
T3 sequence (P11712 whole entry): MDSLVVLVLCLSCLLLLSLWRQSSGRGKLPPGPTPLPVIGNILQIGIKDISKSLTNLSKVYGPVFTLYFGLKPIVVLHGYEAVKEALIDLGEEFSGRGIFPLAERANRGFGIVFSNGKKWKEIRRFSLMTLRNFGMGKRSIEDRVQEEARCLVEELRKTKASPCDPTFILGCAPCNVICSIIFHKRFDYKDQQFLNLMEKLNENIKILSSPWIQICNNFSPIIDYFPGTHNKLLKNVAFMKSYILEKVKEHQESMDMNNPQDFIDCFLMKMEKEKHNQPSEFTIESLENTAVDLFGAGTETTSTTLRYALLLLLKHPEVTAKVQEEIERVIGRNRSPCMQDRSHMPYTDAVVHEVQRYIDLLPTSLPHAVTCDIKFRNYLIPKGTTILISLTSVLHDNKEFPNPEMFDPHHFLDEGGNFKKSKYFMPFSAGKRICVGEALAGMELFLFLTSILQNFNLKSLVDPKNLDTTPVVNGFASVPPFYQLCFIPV
T6 sequence (P33261 whole entry): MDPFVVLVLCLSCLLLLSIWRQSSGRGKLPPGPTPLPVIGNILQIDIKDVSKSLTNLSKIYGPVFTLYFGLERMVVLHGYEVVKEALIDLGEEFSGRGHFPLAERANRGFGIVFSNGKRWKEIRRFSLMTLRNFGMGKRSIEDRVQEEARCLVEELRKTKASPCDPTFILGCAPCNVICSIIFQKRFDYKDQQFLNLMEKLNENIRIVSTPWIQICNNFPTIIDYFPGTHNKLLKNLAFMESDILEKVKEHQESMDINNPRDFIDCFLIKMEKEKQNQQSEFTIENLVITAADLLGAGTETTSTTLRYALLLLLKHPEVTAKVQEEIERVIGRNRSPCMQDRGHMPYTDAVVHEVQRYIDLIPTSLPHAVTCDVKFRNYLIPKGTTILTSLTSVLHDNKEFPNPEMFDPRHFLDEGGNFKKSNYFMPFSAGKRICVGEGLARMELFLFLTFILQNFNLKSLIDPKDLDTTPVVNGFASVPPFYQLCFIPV
T2 sequence (P10635 whole entry): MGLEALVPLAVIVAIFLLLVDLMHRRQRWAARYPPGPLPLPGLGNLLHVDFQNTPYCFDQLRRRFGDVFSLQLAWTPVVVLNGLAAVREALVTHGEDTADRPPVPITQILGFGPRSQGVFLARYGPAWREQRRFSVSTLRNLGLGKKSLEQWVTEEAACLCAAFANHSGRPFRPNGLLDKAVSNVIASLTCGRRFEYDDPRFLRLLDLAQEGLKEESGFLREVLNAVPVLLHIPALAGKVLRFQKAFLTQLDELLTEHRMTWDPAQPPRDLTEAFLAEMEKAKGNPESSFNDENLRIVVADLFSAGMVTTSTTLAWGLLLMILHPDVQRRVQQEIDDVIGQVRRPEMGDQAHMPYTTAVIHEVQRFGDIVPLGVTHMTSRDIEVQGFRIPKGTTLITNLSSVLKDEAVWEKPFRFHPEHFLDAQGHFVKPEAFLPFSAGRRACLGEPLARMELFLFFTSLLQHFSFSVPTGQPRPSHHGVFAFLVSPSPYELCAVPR

A word on the IC50: it is the point on the concentration scale where inhibition reaches its midpoint. Turning to `COc1ccccc1N1CCN(c2nc(NC(=O)C(C)(C)C)c(C(=O)c3ccccc3)s2)CC1` [KRO-105714], the concentration for half-maximal inhibition (IC50) in data set [1] was 0.0792 µM; on 2D6, more than 10 µM; against 2C9 it was more than 10 µM; on 1A2, more than 10 µM; on 3A4, more than 10 µM; at 2C19, more than 10 µM. The compound also had an IC50 at hERG potassium channel [3] of more than 10 µM. The inhibition at 10 µM on hERG potassium channel [2] (read-out: %-Inhibition/[3H]Astemizole -5) was 45%. The inhibition at 1 µM at hERG potassium channel [2] (read-out: %-Inhibition/[3H]Astemizole -6) worked out at 3%.

These data come from PMC7257206, “A novel sphingosylphosphorylcholine and sphingosine-1-phosphate receptor 1 antagonist, KRO-105714, for alleviating atopic dermatitis” (Journal of Inflammation (London, England), 2020).
